“Also recorded” adds a separate entry of the source.
How the values were obtained:
[1] = target: T1, HIV-2 integrase (Human immunodeficiency virus type 2 subtype A, UniProt P04584); assay: HIV-2 integrase 3′-processing assay; assay type: biochemical; conditions: HIV-1 DNA
T1 construct: A plasmid encoding the HIV-2 integrase was generously provided by Dr. R. H. A. Plasterk; made in house

[2] = target: T2, HIV-1 integrase catalytic core IN50-212 (Human immunodeficiency virus type 1 group M subtype B, UniProt P12497); assay: Disintegration assay, IN50-212; assay type: biochemical; conditions: IN50-212, 3 μM
T2 construct: purchased gift of Drs; T. Jenkins and R. Craigie, NIDDK, NIH (not bought)

[3] = test system: Yellow Fever virus
[4] = set-up: species or system cynomolgus monkeys; conditions: cynomolgus monkey, in vivo
Protocol: Dosing. Twelve experimentally naive cynomolgus monkeys were assigned to four groups of three animals each. Prior to dosing, each animal was lightly sedated with a combination of ketamine (1 0 mg/kg) and diazepam (0.5 mg/kg), and a catheter was introduced into the femoral artery for recording central arterial pressure. Monkeys were given a single intravenous infusion of 5, 20, or 50 mg AR177/kg or saline over ten minutes through a cephalic vein catheter using a Harvard infusion pump. Arterial blood samples were drawn at −10, +10, +20, +40, +60 and +120 minutes relative to the initiation of infusion into EDTA-containing tubes for hematology, complement factors, coagulation assay, serum chemistry, and plasma AR177 determination. At 24 hours post-infusion, blood was drawn via the femoral vein into EDTA-containing tubes for these same parameters. The concentration of AR177 in dosing solutions was confirmed post experiment by absorbance at 280 nm on a spectrophotometer. For the determination of AR177 by HPLC, the plasma fraction was obtained by low speed centrifugation of blood, and stored at −20° C. until used. Electrocardiograms (ECGs), central pressure, and heart rate were recorded continuously for 120 minutes following the initiation of doing. Table E-1 summarizes the study design. […]
Complement factors. The complement split product Bb and total hemolytic complement CH50 were determined. […]

[5] = set-up: species or system cynomolgus monkeys; conditions: cynomolgus monkey, in vivo; remark: listed apart in the source
Protocol: AR177 plasma HPLC analysis. Blood was taken for plasma analysis of AR177 just prior to, and at 5, 30 and 240 minutes following administration of doses 1 and 12. The plasma fraction was obtained by low speed centrifugation of blood, and stored at −20° C. until analyzed for the AR177 concentration. Plasma AR177 concentrations were assayed using an anion-exchange HPLC method on a Waters HPLC system with a 626 pump, 996 photodiode array detector, 717 autosampler and Millennium system software controlled by an NEC Image 466 computer. Buffer A was 0.1 M Tris base, 20% methanol, pH 12, and Buffer B was 0.1 M Tris base, 1.0 M NaBr, pH12. anion-exchange column tGen-Pak Fax column) was equilibrated at 80% buffer A/20% buffer B for 30 minutes before each HPLC run. Fifty microliters of plasma were analyzed per run. The elusion conditions were: a) five-minute isocratic run at 80% A/20% B, during which the majority of the plasma proteins eluted, b) 30-minute linear gradient to 30% A/70% B during which the AR177 eluted, c) five-minute isocratic run at 30% A/70% B. d) one minute linear gradient to 100% B. e) two- minute run at 100% B for initial column cleanup, and fl two-minute linear gradient to 70% A/30% B for the initial step in the clean-up method for HPLC column clean-up. […]

[6] = target: T3, HIV-1 integrase IN1-288 (Human immunodeficiency virus type 1 group M subtype B, UniProt P12497); assay: Disintegration assay, wild-type integrase; assay type: biochemical
T3 construct: purchased gift of Drs; T. Jenkins and R. Craigie, NIDDK, NIH (not bought; the expression system was also provided)

[7] = test system: HIV-1DV; assay: Acute infection of primary human macrophages (intracellular p24); assay type: cell-based
[8] = target: T4, HIV-1 protease (Human immunodeficiency virus type 1 group M subtype B, UniProt P04585); assay: HIV-1 protease assay; assay type: biochemical; conditions: up to 10 μM
T4 construct: HIV-1 protease enzyme (Bachem) was diluted to 166 ug/mL; purchased Bachem
Protocol: Protease assays. HIV-1 protease enzyme (Bachem) was diluted to 166 ug/mL in 50 mM NaOAc, 5 mM DTT, 2 mM ETDA, and 10% glycerol (pH 5.0) and stored as 10 ul aliquots at −20° C. HIV protease substrate I (Molecular Probes) was diluted to a working concentration of 0.32 nmol/μL. Enzyme (20 μL), substrate (20 μL) and drug (20 μL ) were added to each well of a microtiter plate. Positive and negative controls were evaluated in parallel. Fluorescence was quantitated on a Labsystems Fluoroskan II using 355 nm for excitation and 460 nm emission wavelengths at 37° C. at time zero and at 30 minute intervals for 2 hours.

[9] = in vitro; conditions: human

T1 sequence (P04584 1172-1464): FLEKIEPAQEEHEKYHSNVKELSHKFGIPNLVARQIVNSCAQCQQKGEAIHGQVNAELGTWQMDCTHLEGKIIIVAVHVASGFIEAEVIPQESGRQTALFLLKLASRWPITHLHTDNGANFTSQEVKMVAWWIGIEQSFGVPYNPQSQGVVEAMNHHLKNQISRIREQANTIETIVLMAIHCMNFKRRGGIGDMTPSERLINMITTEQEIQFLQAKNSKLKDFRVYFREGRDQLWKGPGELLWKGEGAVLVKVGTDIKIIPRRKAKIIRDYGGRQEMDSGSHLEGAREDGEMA

For “5′-gtggtgggtgggtgggt-3′ (GTGGTGGGTGGGTGGGT; phosphorothioate termini, further chemistry not given here) [T30177, pPT version of parent compound I100-15, 17 mer]”, the IC50 [1] was 0.09 µM, the inhibition of disintegration [2] was ≤ 30% and the IC50 virus-induced cytopathogenicity ([3]; Yellow Fever virus) was >200 mg/L. For the same molecule, the “MCC minimum concentration altering normal cell morphology” value ([3]; Yellow Fever virus assay) was >200 μg/mL, the CH50 levels [4] was “small and transient decreases” and the “change in CHX (CH50) levels” value [4] was −25%. The “metabolites (n−1, n−2) in plasma” value [5] was “No metabolites”, the IC50 [6] was 0.27 µM and the “HIV-1 replication in macrophages” value [7] was “significantly inhibited HIV-1 replication in macrophages”. The “inhibition of HIV-1 protease” value [8] was “No observable inhibition; also recorded: no effect on the viral enzyme was observed”.
Cc1cn([C@H]2C[C@H](N=[N+]=[N-])[C@@H](CO)O2)c(=O)[nH]c1=O [AZT, 3′-azido-3′-deoxythymidine] gave a CC50 [9] of ~10 µM.
